Eleven compounds from US12559506B2, “Indazole based compounds and associated methods of use” (Arvinas Operations, Inc., priority 2021, dated 2026) can be followed below.

Usually DC50 stands for the concentration at which degradation of the target reaches its halfway point. In general, Dmax refers to the largest share of the target that was removed.

Each structure is given as a SMILES string. Like-named read-outs stand apart in the source and are kept apart here.

One assay has as its target T1, G2019S LRRK2 (Homo sapiens, UniProt Q5S007, G2019S).
T1 construct: expressed in transfected cells; host or cells: HEK293 (ATCC CRL-1573), transient transfection, mammalian expression vector with ubiquitin promoter
In words: LRRK2 degradation assay, HiBit-tagged G2019S LRRK2 expressed from plasmid in HEK293 cells (Nano-Glo Dual-Luciferase). In kind it is cell-based. The note with it: 24 hours. An excerpt: (§1) Exemplary Assay for Testing LRRK2 Degradation Driven by Exemplary Hetero-Bifunctional Compounds Designed to Target LRRK2
(§2) The assay measures the degradation of wildtype and G2019S LRRK2 tagged with a HiBit tag on the C-terminus of the protein that was expressed from a mammalian expression vector, driven by the ubiquitin promoter in HEK293 cells. Each compound dose-response was repeated on two separate days, on three separate plates each day.
(§3) Plasmid Preparation. Transfection mixes were assembled as follows and incubated for 30 minutes at room temperature. In a 15 mL tube, 5.25 mL Opti-MEM (no additions) was mixed with 17 μL Firefly Luciferase plasmid at 1 μg/μL and 158 μL WT plasmid DNA at 1 μg/μL (175 μg total DNA) were mixed by flicking. In a new 15 mL tube, 5.25 mL OptiMEM was mixed with 17 μL Firefly Luciferase plasmid at 1 μg/μL and 158 μL G2019S plasmid DNA at 1 μg/μL (175 μg total DNA) were mixed by flicking. X-tremeGene HP was mixed thoroughly using a vortex. Next, 175 μL was added to each tube and flicked to mix. Both tubes were left to incubate for 30 minutes at room temperature.
(§4) While the transfection mixes were incubating, HEK293 cells (acquired from ATCC; ATCC CRL-1573) were harvested with trypsin. Once cells are detached, the cells were resuspended in 12 mL OptiMEM+5% FBS and transferred to a 50 mL tube. The cells were mixed well and counted. Using OptiMEM+5% FBS, the cells were diluted in two 250 mL conical tubes at 0.71×10^6 cells/mL in 70 mL. One tube was labeled “WT” and the other “G2019S”. The WT and G2019S transfection mixes were added dropwise to the corresponding 250 mL tubes. The tubes were mixed first by pipetting then by swirling. The tubes were incubated at room temperature for at least 5 minutes.
(§5) Each tube was swirled before dispensing and after every three plates. Seventy microliters of cells were dispensed with WT or G2019S DNA to seven plates each. Three plates of each were tested with compound plate one (preparation described below) and three plates of each were tested with compound plate two (preparation described below). The first plate from each set served as a “prime” plate and was not used to test compounds. Each plate was incubated in the hood for 10 minutes before placing in the 37° C. incubator for 24 hours.
(§6) Preparation of Compound and Assay Plates. Two compound plates were made using 96 well polypropylene plates. Compounds were made up at 10 mM and were diluted to 1 mM in 30 μL. Each dose response curve included a well of DMSO, as a negative control and for normalization, and a well of 0.5 μM of Compound 4 as a positive control. In addition to seven test compounds, each plate also included a dose response of Compound 4. The compound plates were spun down along at 1200 rpm for 2 minutes.
(§7) The two compound plates were then mixed and 2 μL was diluted in intermediate plates having 248 μL of Opti-Mem in each well. Next, 10 μL diluted compounds from the intermediate plates were added to each test plate (three WT and three G2019S plates per compound plate for a total of 12 assay plates). The plates were incubated for 24 hours at 37° C.
(§8) All assay plates and all Nano-Glo Dual-Luciferase Reporter Assay System components (except for the DLR substrate) were equilibrated to room temperature. Next, the luciferase buffer was mixed with the lyophilized amber bottle until fully dissolved, and 75 μL of the luciferase mixture was added to each well of each assay plate. The assay plates were incubated for 10 minutes at room temperature with shaking for at least 5 minutes, and then read on a plate reader.
(§9) Developing Plates and Analyzing Data. One milliliter of DLR substrate and 1 mL LgBiT Protein were added to the Stop and Glo buffer, and 75 μL of the mixture was added to each well of each plate. Optically clear seals were added to each plate and each plate was incubated for 20 minutes with shaking for at least 10 minutes, and then read on a plate reader. […]
(HiBiT is a short tag that completes a luciferase, so light tracks the accessible tagged protein.)

A further assay deals with T2, wildtype LRRK2 (Homo sapiens, UniProt Q5S007).
T2 construct: expressed in transfected cells; host or cells: HEK293 (ATCC CRL-1573), transient transfection, mammalian expression vector with ubiquitin promoter
T2 sequence (Q5S007 whole entry): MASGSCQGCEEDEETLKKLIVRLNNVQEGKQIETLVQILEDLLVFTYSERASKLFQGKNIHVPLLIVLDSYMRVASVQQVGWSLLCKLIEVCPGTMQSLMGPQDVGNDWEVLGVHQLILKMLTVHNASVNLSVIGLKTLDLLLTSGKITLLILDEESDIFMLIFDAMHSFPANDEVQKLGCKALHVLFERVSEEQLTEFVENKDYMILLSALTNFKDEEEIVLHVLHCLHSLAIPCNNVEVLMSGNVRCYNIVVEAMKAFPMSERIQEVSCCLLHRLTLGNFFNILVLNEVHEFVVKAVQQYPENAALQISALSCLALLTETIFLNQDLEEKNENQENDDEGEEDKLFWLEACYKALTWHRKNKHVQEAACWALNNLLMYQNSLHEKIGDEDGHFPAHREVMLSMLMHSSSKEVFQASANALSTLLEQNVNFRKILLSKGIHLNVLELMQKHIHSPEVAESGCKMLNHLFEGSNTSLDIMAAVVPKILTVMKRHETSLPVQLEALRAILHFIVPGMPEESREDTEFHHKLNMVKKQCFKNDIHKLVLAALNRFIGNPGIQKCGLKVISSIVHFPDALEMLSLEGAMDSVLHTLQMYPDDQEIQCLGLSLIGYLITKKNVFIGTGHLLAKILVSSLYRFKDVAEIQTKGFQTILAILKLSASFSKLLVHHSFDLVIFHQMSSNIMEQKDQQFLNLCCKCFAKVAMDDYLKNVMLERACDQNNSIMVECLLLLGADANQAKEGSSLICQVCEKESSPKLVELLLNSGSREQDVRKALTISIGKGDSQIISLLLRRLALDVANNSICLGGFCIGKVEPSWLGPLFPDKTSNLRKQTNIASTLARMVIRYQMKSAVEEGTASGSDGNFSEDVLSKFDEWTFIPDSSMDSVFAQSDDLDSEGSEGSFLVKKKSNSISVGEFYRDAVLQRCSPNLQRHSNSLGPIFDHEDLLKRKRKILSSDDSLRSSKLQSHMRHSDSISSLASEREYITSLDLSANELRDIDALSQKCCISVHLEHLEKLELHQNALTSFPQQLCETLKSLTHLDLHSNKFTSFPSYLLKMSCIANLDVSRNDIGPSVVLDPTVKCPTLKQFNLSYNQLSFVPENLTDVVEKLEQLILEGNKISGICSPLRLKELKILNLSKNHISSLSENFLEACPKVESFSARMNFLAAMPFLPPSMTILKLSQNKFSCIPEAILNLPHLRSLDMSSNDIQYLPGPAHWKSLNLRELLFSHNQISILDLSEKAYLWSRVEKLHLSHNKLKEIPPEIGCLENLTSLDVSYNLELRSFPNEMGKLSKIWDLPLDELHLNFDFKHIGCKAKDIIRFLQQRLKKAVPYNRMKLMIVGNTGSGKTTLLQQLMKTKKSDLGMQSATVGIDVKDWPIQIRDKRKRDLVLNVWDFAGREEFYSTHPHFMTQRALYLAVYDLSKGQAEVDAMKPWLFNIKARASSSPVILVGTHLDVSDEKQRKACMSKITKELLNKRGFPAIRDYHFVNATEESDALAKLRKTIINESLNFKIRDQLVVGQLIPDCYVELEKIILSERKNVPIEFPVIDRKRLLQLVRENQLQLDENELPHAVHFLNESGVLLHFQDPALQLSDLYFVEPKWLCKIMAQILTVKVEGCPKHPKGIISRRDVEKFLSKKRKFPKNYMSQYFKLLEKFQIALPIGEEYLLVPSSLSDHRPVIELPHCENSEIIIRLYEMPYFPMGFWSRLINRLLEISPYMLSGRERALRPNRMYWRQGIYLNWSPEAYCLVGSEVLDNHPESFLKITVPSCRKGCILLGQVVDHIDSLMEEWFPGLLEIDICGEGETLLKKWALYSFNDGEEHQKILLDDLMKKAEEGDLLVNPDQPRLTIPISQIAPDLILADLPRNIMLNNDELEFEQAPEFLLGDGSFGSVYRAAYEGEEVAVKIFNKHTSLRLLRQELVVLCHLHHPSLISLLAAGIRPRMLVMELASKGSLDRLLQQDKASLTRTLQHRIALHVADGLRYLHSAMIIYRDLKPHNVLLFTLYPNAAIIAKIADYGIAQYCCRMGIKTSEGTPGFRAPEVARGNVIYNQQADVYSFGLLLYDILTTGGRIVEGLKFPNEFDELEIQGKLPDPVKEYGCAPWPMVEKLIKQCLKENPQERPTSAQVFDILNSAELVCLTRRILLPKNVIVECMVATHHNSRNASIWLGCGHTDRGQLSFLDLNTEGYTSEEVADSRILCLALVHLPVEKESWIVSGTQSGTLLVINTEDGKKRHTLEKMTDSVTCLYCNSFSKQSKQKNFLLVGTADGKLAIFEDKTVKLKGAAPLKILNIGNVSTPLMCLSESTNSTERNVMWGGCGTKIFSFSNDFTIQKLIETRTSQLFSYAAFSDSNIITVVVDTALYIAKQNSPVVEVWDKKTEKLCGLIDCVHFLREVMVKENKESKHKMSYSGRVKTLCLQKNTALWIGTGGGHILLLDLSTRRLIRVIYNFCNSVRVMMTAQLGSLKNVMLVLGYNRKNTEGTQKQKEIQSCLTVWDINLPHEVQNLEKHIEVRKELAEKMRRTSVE
Kind of assay: LRRK2 degradation assay, HiBit-tagged wildtype LRRK2 expressed from plasmid in HEK293 cells (Nano-Glo Dual-Luciferase). The note with it: 24 hours; for Dmax: read-out: **WT Dmax (%); for DC50: read-out: *WT DC50. In kind it is cell-based.
From the text: as §1, §2, §3, §4, §5, §6, §7, §8, §9

Where [1] appears, read: HiBit-tagged G2019S LRRK2 in HEK293 cells.
Where [2] appears, read: HiBit-tagged wildtype LRRK2 in HEK293 cells.
Where [3] appears, read: HiBit-tagged G2019S LRRK2, HEK293 cells.
[4] abbreviates: HiBit-tagged wildtype LRRK2, HEK293 cells.

T1 sequence (Q5S007 whole entry G2019S): as the sequence (Q5S007 whole entry) above, with G2019S counted along it

Take `CC1(Oc2ccc3[nH]nc(-c4ccnc(N5CCOC6(CN(CC7CCN(CC8CCN(c9cccc%10c9C(=O)N(C9CCC(=O)NC9=O)C%10=O)CC8)CC7)C6)C5)c4)c3c2)CC1` (centres unmarked) [Compound 144, 2-(2,6-dioxo-3-piperidyl)-4-[4-[[4-[[8-[4-[5-(1-methylcyclopropoxy)-1H-indazol-3-yl]-2-pyridyl]-5-oxa-2,8-diazaspiro[3.5]nonan-2-yl]methyl]-1-piperidyl]methyl]-1-piperidyl]isoindoline-1,3-dione]: the half-maximal degradation concentration (DC50) on G2019S LRRK2 (setting [1]) and at wildtype LRRK2 (setting [2]) was 10 to 50 nM in each case. Further, the Dmax on G2019S LRRK2 (setting [1]) and on wildtype LRRK2 (setting [2]) was 50 to 70% throughout.
On G2019S LRRK2 (setting [1]), `C[C@H]1CN(c2cc(-c3n[nH]c4ccc(OC5CC5)cc34)ncn2)CCN1CC1CCN(CC2CCN(c3ccc4c(c3)C(=O)N(C3CCC(=O)NC3=O)C4=O)CC2)CC1` (stereo partly drawn) [Compound 72, 5-{4-[(4-{[(2S)-4-[6-(5-cyclopropoxy-1H-indazol-3-yl)pyrimidin-4-yl]-2-methylpiperazin-1-yl]methyl}piperidin-1-yl)methyl]piperidin-1-yl}-2-(2,6-dioxopiperidin-3-yl)-2,3-dihydro-1H-isoindole-1,3-dione] showed a DC50 of 10 to 50 nM and a Dmax of 50 to 70%. For the same compound, on wildtype LRRK2 (setting [2]), the maximal degradation (Dmax) lay within 50 to 70% and the DC50 was 10 to 50 nM.
Turning to `CC1(Oc2ccc3[nH]nc(-c4cc(N5CCO[C@H](CN6CCN(CC7CCN(c8ccc9c(c8)C(=O)N(C8CCC(=O)NC8=O)C9=O)CC7)CC6)C5)ncn4)c3c2)CC1` (stereo partly drawn) [Compound 152, 2-(2,6-dioxo-3-piperidyl)-5-[4-[[4-[[(2R)-4-[6-[5-(1-methylcyclopropoxy)-1H-indazol-3-yl]pyrimidin-4-yl]morpholin-2-yl]methyl]piperazin-1-yl]methyl]-1-piperidyl]isoindoline-1,3-dione], the half-maximal degradation concentration (DC50) at G2019S LRRK2 (setting [3]) and on wildtype LRRK2 (setting [4]) was < 10 nM in each case. In addition, the Dmax at G2019S LRRK2 (setting [3]) and at wildtype LRRK2 (setting [4]) was < 50% throughout.
Turning to `CC1(Oc2ccc3n[nH]c(-c4cc(N5CCC(CN6CCN(CC7CCN(c8cccc9c8CN(C8CCC(=O)NC8=O)C9=O)CC7)CC6)CC5)ncn4)c3c2)CC1` (centres unmarked) [Compound 147, 3-[4-[4-[[4-[[1-[6-[5-(1-methylcyclopropoxy)-2H-indazol-3-yl]pyrimidin-4-yl]-4-piperidyl]methyl]piperazin-1-yl]methyl]-1-piperidyl]-1-oxo-isoindolin-2-yl]piperidine-2,6-dione], at G2019S LRRK2 (setting [1]), the half-maximal degradation concentration (DC50) is < 10 nM and the Dmax is ≥ 70%. Also, on wildtype LRRK2 (setting [2]), the Dmax is ≥ 70% and the DC50 is < 10 nM.
For `CC1(Oc2ccc3[nH]nc(-c4cc(N5CCO[C@@H](CN6CCN(CC7CCN(c8ccc9c(c8)C(=O)N(C8CCC(=O)NC8=O)C9=O)CC7)CC6)C5)ncn4)c3c2)CC1` (stereo partly drawn) [Compound 153, 2-(2,6-dioxopiperidin-3-yl)-5-{4-[(4-{[(2S)-4-{6-[5-(1-methylcyclopropoxy)-1H-indazol-3-yl]pyrimidin-4-yl}morpholin-2-yl]methyl}piperazin-1-yl)methyl]piperidin-1-yl}-2,3-dihydro-1H-isoindole-1,3-dione], at G2019S LRRK2 (setting [3]), the 50% degradation concentration (DC50) is < 10 nM and the maximal degradation (Dmax) was < 50%. Further, at wildtype LRRK2 (setting [4]), the Dmax was < 50% and the DC50 is < 10 nM.
On to `CC1(Oc2ccc3[nH]nc(-c4ccnc(N5CC6(CCN6CC6CCN(CC7CCN(c8ccc9c(c8)C(=O)N(C8CCC(=O)NC8=O)C9=O)CC7)CC6)C5)c4)c3c2)CC1` (centres unmarked) [Compound 163, 2-(2,6-dioxo-3-piperidyl)-5-[4-[[4-[[6-[4-[5-(1-methylcyclopropoxy)-1H-indazol-3-yl]-2-pyridyl]-1,6-diazaspiro[3.3]heptan-1-yl]methyl]-1-piperidyl]methyl]-1-piperidyl]isoindoline-1,3-dione], for which, on G2019S LRRK2 (setting [3]), the DC50 fell in the range of 10 to 50 nM and the greatest degradation seen (Dmax) was < 50%. In addition, at wildtype LRRK2 (setting [4]), the maximal degradation (Dmax) was < 50% and the DC50 fell in the range of 10 to 50 nM.
In the case of `CC1(Oc2ccc3[nH]nc(-c4cc(N5CCN(CC(F)(F)C6CCN(CC7CCN(c8ccc9c(c8)C(=O)N(C8CCC(=O)NC8=O)C9=O)CC7)CC6)CC5)ncn4)c3c2)CC1` (centres unmarked) [Compound 53, 5-[4-[[4-[1,1-difluoro-2-[4-[6-[5-(1-methylcyclopropoxy)-1H-indazol-3-yl]pyrimidin-4-yl]piperazin-1-yl]ethyl]-1-piperidyl]methyl]-1-piperidyl]-2-(2,6-dioxo-3-piperidyl)isoindoline-1,3-dione], the DC50 at G2019S LRRK2 (setting [1]) and at wildtype LRRK2 (setting [2]) was < 10 nM in each case. In addition, the Dmax on G2019S LRRK2 (setting [1]) and at wildtype LRRK2 (setting [2]) was 50 to 70% throughout.
Consider `C[C@H]1CN(c2cc(-c3n[nH]c4ccc(OC5(C)CC5)cc34)ncn2)CCN1C[C@@H]1CCN(CC2CCN(c3ccc4c(c3)C(=O)N(C3CCC(=O)NC3=O)C4=O)CC2)C1` (stereo partly drawn) [Compound 113, 2-(2,6-dioxopiperidin-3-yl)-5-(4-{[(3R)-3-{[(2S)-2-methyl-4-{6-[5-(1-methylcyclopropoxy)-1H-indazol-3-yl]pyrimidin-4-yl}piperazin-1-yl]methyl}pyrrolidin-1-yl]methyl}piperidin-1-yl)-2,3-dihydro-1H-isoindole-1,3-dione], for which the 50% degradation concentration (DC50) at G2019S LRRK2 (setting [1]) and on wildtype LRRK2 (setting [2]) was < 10 nM each time. In addition, the Dmax on G2019S LRRK2 (setting [1]) was < 50%; on wildtype LRRK2 (setting [2]), 50 to 70%.
For `CC1(Oc2ccc3n[nH]c(-c4cc(N5CCN(CC6(F)CCN(C(=O)C7CN(c8ccc9c(c8)C(=O)N(C8CCC(=O)NC8=O)C9=O)C7)CC6)CC5)ncn4)c3c2)CC1` (centres unmarked) [Compound 136, 2-(2,6-dioxo-3-piperidyl)-5-[3-[4-fluoro-4-[[4-[6-[5-(1-methylcyclopropoxy)-2H-indazol-3-yl]pyrimidin-4-yl]piperazin-1-yl]methyl]piperidine-1-carbonyl]azetidin-1-yl]isoindoline-1,3-dione], the DC50 on G2019S LRRK2 (setting [1]) and on wildtype LRRK2 (setting [2]) was < 10 nM each time. Moreover, the Dmax at G2019S LRRK2 (setting [1]) and on wildtype LRRK2 (setting [2]) was 50 to 70% in each case.
As for `CC1(Oc2ccc3n[nH]c(-c4ccnc(N5CCN(C(=O)C6CCN(CC7CCN(c8ccc9c(c8)C(=O)N(C8CCC(=O)NC8=O)C9=O)CC7)CC6)CC5)c4)c3c2)CC1` (centres unmarked) [Compound 85, 2-(2,6-dioxo-3-piperidyl)-5-[4-[[4-[4-[4-[5-(1-methylcyclopropoxy)-2H-indazol-3-yl]-2-pyridyl]piperazine-1-carbonyl]-1-piperidyl]methyl]-1-piperidyl]isoindoline-1,3-dione], at G2019S LRRK2 (setting [1]), the DC50 was < 10 nM and the Dmax was < 50%. Also, on wildtype LRRK2 (setting [2]), the Dmax was < 50% and the half-maximal degradation concentration (DC50) was < 10 nM.
In the case of `CC1(Oc2ccc3[nH]nc(-c4ccnc(N5CCC(O[C@H]6C[C@H](OC7CCN(c8ccc9c(c8)C(=O)N(C8CCC(=O)NC8=O)C9=O)CC7)C6)CC5)c4)c3c2)CC1` (some centres unmarked) [Compound 127, 2-(2,6-dioxo-3-piperidyl)-5-[4-[3-[[1-[4-[5-(1-methylcyclopropoxy)-1H-indazol-3-yl]-2-pyridyl]-4-piperidyl]oxy]cyclobutoxy]-1-piperidyl]isoindoline-1,3-dione], at G2019S LRRK2 (setting [1]), the 50% degradation concentration (DC50) lay within 10 to 50 nM and the Dmax was < 50%. At wildtype LRRK2 (setting [2]), the greatest degradation seen (Dmax) was < 50% and the DC50 fell in the range of 10 to 50 nM.
